Results from PubChem BioAssay AID720570 (Broad Institute, 2013).
Activity calls are given as the source filed them.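 How the source made its calls: active means cell-killing curve crosses a set limit at a concentration no more than twice the top valid dose; inconclusive means flat curve with a 30 to 70% loss, or a poor fit; inactive means signal rising instead of falling, and the rest.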

Experiment: cytotoxicity in EWS/Fli1-dependent TC71 cells – cell-based, luminescence, cherry-picked samples, retest, confirmation (AID 720570)
Details: TC71 Ewing sarcoma viability, CellTiter-Glo ATP, 72 h; at 26 µM (top of the series)
In the case of `CC(=O)Nc1ccc(OCC(=O)N(CC(C)C)C2CCS(=O)(=O)C2)cc1` (stereo not drawn), the activity change, negative = cytotoxicity is reported as 11.9% (inactive). With `COC(=O)C[C@@H]1CC[C@@H]2[C@H](COc3ccc(NC(=O)c4ccc(F)c(F)c4)cc3C(=O)N2C)O1` the activity change, negative = cytotoxicity was 9.2% (inactive). For `COc1ccccc1CNC(=O)C[C@@H]1CC[C@H]2[C@@H](COC[C@H](O)CN2C(=O)Nc2ccc(C(F)(F)F)cc2)O1`, the activity change, negative = cytotoxicity was -18.3% (inactive). In the case of `O=C(CCCCl)Nc1nc(-c2ccc3c(c2)OCCO3)cs1`, the activity change, negative = cytotoxicity is reported as 3.63% (inactive). In the case of `COc1ccc(/C=C2\Oc3ccccc3C2=O)cc1`, the activity change, negative = cytotoxicity is reported as -14.5% (inactive). For `Cc1ccc(/C=C2\SC(=S)N(CCCC(=O)NNC(=O)c3ccccc3O)C2=O)cc1`, the activity change, negative = cytotoxicity was -5.43% (inactive). For `C(=N\Nc1ccc2ccccc2n1)/c1ccc2c(c1)OCO2`, the activity change, negative = cytotoxicity was -9% (inactive). With `Cc1c(N=Cc2cc(Br)cc(Br)c2O)cccc1C(=O)O` the activity change, negative = cytotoxicity was 25.2% (inactive). In the case of `CCOc1cc(N2CCC(O)CC2)ccc1Nc1ncc2c(n1)N(C)c1ccccc1C(=O)N2C`, the activity change, negative = cytotoxicity is reported as -28.3% (inactive). For `Cc1cc(C(=O)NNC(=O)c2ccc(S(=O)(=O)N(C)C)cc2)c(C)o1`, the activity change, negative = cytotoxicity was 17.6% (inactive). For `O=C(NCCc1ccccc1)c1ccccc1NC(=O)C1CCCO1` (stereo not drawn), the activity change, negative = cytotoxicity was -0.496% (inactive). For `Cc1occc1-c1n[nH]c(=S)n1C`, the activity change, negative = cytotoxicity was 0.805% (inactive). For `COC(=O)C[C@@H]1CC[C@@H]2[C@@H](COc3ccc(NC(=O)Cc4cccs4)cc3C(=O)N2C)O1`, the activity change, negative = cytotoxicity was 14.1% (inactive). In the case of `COc1cccc(S(=O)(=O)N(C)C[C@H]2OCc3cnnn3CCCC(=O)N([C@@H](C)CO)C[C@H]2C)c1`, the activity change, negative = cytotoxicity is reported as -0.98% (inactive). In the case of `Cc1ccsc1/C=N/Nc1ccc(C(=O)O)cc1`, the activity change, negative = cytotoxicity is reported as -11.1% (inactive). With `CCS(=O)(=O)N1Cc2ccccc2CC1C(=O)Nc1nnc(SCc2ccc(C#N)cc2)s1` (stereo not drawn) the activity change, negative = cytotoxicity was 21.3% (inactive). For `Cc1c(-c2nc(-c3ccc(C(C)(C)C)cc3)no2)n(C)oc1=O`, the activity change, negative = cytotoxicity was -0.627% (inactive). In the case of `O=C(O)c1ccc(N/N=C/c2c[nH]c3ccccc23)cc1`, the activity change, negative = cytotoxicity is reported as 19.2% (inactive). With `CCCCN=C(NNc1ccc(Br)cc1)C(=O)OCC` the activity change, negative = cytotoxicity was 4.46% (inactive). For `CCNC(=O)c1cccc(S(=O)(=O)N2CCCCCC2)c1`, the activity change, negative = cytotoxicity was -7.03% (inactive). With `CCc1ccc(/C=C2\SC(=S)N(CCC(=O)Nc3cc(C)on3)C2=O)cc1` the activity change, negative = cytotoxicity was 9.95% (inactive). In the case of `O=C1C(=O)N(Cc2cccs2)c2ccccc21`, the activity change, negative = cytotoxicity is reported as 17.4% (inactive). For `CC(=NNc1ccc2ccccc2n1)c1ccccc1O`, the activity change, negative = cytotoxicity was -20.9% (inactive). In the case of `CCCNC(=O)[C@@H]1[C@@H](CO)[C@@H]2Cn3c(ccc(-c4ccccc4)c3=O)[C@H]1N2C(=O)CC`, the activity change, negative = cytotoxicity is reported as 0.956% (inactive). For `O=C(CNC(c1ccccc1)c1ccccc1)Nc1ccccc1-c1ccccc1`, the activity change, negative = cytotoxicity was 11.2% (inactive). With `O=C1Nc2ccccc2C1=Nc1ccc(Br)cc1` the activity change, negative = cytotoxicity was -5.59% (inactive). With `N#Cc1cccc(-c2ccc(C3[C@@H]4CN(C(=O)Cc5ccncc5)C[C@H]3N4)cc2)c1` (stereo partly drawn) the activity change, negative = cytotoxicity was 0.809% (inactive). For `Nc1ccc(-c2cc3ccccc3c(=O)o2)cc1`, the activity change, negative = cytotoxicity was 14.9% (inactive). With `O=C1Nc2cc(C(=O)NCCN3CCCCCC3)ccc2S/C1=C\c1ccccc1` the activity change, negative = cytotoxicity was -2.13% (inactive). For `N#C[C@@H]1[C@H](c2ccc(C#Cc3ccccc3F)cc2)[C@@H](CO)N1C(=O)c1cccnc1`, the activity change, negative = cytotoxicity was 13.1% (inactive). With `CN(C(=O)COC(=O)c1cc(-c2ccccc2Cl)nc2ccccc12)C1CCS(=O)(=O)C1` (stereo not drawn) the activity change, negative = cytotoxicity was 5.31% (inactive). With `COc1ccc(N=C2C(=O)Nc3ccc(C)c(Br)c32)cc1` the activity change, negative = cytotoxicity was 5.89% (inactive). In the case of `c1cncc(-c2ccc([C@@H]3[C@H]4CNC[C@@H]3N4CC3CCOCC3)cc2)c1`, the activity change, negative = cytotoxicity is reported as 5.7% (inactive). For `CC1=NN(c2ccccc2)C(=O)/C1=C\C=C\c1ccccc1`, the activity change, negative = cytotoxicity was 22.9% (inactive). With `O=C1C(=O)N(CCS(=O)(=O)c2ccccc2)c2ccc(Cl)cc21` the activity change, negative = cytotoxicity was 20.1% (inactive). For `Cc1cc(C)cc(OCC(=O)OCC(=O)Nc2cc(S(=O)(=O)N3CCOCC3)ccc2C)c1`, the activity change, negative = cytotoxicity was 5.46% (inactive). In the case of `COCCOC(=O)N1C(=O)[C@@]2(c3cc(C#CCC(C(=O)OC)C(=O)OC)ccc31)[C@H](c1ccccc1OCCO)N1[C@H](c3ccccc3)[C@H](c3ccccc3)OC(=O)[C@H]1[C@@H]2C(=O)N1CCN(c2ncccn2)CC1`, the activity change, negative = cytotoxicity is reported as 16.1% (inactive). With `COC(=O)COc1ccc(-c2nccc(-c3ccccn3)n2)cc1` the activity change, negative = cytotoxicity was 7.95% (inactive).
